Data: patent publication US10669269B2, “Substituted N-(1H-indazol-4-yl)imidazo[1,2-a]pyridine-3-carboxamide compounds as type III receptor tyrosine kinase inhibitors” (ARRAY BIOPHARMA INC., priority 2010, dated 2020)
Counter-ions that a name gives are not always drawn.

Tests used:
c-KIT = target: T1, c-KIT (Homo sapiens, UniProt P10721); assay: c-KIT Cell-Based Assay (Example D); conditions: averaged IC50; phospho-c-KIT in M-07e cells stimulated with 150 ng/ml recombinant human SCF; read-out: cKIT Cell ELISA IC50
T1 construct: M-07e cells (human acute megakaryoblastic leukemia cell line) were serum-starved for 4 hours; endogenous in cells; host or cells: M-07e cells (human acute megakaryoblastic leukemia cell line)
T1 sequence (P10721 26-976): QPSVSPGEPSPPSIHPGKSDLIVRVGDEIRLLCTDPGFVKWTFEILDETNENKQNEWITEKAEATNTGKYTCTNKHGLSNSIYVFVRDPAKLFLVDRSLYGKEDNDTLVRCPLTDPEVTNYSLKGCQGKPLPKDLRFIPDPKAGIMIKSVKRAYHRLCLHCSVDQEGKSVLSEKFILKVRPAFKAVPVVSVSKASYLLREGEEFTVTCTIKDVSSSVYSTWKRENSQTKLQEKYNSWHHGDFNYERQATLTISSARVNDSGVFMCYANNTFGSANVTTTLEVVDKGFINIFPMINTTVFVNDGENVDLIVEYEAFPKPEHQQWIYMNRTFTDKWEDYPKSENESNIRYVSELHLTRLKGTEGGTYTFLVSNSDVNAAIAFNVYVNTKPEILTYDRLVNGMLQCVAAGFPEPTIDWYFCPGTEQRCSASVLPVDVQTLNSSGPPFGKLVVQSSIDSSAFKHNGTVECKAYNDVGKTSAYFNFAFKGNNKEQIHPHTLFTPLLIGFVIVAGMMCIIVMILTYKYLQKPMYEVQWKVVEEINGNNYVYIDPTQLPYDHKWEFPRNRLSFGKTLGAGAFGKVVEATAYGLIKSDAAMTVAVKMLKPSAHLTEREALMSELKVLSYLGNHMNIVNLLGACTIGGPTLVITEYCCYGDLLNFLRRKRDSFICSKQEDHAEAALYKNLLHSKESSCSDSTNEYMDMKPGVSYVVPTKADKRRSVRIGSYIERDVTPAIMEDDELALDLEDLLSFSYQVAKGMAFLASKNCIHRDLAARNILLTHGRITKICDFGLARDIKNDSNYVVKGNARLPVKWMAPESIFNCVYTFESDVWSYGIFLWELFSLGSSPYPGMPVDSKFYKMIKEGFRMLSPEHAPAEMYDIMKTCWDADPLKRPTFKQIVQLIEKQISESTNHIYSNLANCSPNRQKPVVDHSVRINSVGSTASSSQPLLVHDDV
Experimental: The ability of compounds of Formula I to inhibit c-KIT activation in cells was determined by the following assay. M-07e cells (human acute megakaryoblastic leukemia cell line) were serum-starved for 4 hours prior to treatment with compounds of Formula I for 1 hour. The concentration of compounds of Formula I was varied over a 9-point, 3-fold dilution series with 5,000 nM typically being the highest dose. Cell culture and treatment were carried out in a humidified 37° C., 5% CO2 incubator. Treated cells were stimulated with 150 ng/ml recombinant human SCF for 4 minutes to induce activation of c-KIT. Cells were lysed in a manner which preserves phosphoproteins, and the lysate was analyzed by ELISA (R&D Systems, Human Phospho-SCF R DuoSet IC DYC3527), in which total c-KIT protein in the lysate is captured and phosphotyrosine residues of c-Kit are detected. A standard curve, made using purified phospho-SCF R protein, was used to quantify phospho-c-KIT in compound-treated wells. A standard 4-parameter logistic model was fit to the inhibitor dose response curves, with the IC50 being defined as the concentration of inhibitor giving 50 percent of control (POC).

cFMS = target: T2, cFMS (Homo sapiens, UniProt P07333); assay: cFMS Cell-Based Assay (Example C); conditions: averaged IC50; phospho-cFMS in THP-1 cells stimulated with 250 ng/mL recombinant human MCSF; read-out: cFMS Cell ELISA IC50
T2 construct: THP-1 cells (human acute monocytic leukemia cell line) were serum-starved for 4 hours; endogenous in cells; host or cells: THP-1 cells (human acute monocytic leukemia cell line)
T2 sequence (P07333 20-972): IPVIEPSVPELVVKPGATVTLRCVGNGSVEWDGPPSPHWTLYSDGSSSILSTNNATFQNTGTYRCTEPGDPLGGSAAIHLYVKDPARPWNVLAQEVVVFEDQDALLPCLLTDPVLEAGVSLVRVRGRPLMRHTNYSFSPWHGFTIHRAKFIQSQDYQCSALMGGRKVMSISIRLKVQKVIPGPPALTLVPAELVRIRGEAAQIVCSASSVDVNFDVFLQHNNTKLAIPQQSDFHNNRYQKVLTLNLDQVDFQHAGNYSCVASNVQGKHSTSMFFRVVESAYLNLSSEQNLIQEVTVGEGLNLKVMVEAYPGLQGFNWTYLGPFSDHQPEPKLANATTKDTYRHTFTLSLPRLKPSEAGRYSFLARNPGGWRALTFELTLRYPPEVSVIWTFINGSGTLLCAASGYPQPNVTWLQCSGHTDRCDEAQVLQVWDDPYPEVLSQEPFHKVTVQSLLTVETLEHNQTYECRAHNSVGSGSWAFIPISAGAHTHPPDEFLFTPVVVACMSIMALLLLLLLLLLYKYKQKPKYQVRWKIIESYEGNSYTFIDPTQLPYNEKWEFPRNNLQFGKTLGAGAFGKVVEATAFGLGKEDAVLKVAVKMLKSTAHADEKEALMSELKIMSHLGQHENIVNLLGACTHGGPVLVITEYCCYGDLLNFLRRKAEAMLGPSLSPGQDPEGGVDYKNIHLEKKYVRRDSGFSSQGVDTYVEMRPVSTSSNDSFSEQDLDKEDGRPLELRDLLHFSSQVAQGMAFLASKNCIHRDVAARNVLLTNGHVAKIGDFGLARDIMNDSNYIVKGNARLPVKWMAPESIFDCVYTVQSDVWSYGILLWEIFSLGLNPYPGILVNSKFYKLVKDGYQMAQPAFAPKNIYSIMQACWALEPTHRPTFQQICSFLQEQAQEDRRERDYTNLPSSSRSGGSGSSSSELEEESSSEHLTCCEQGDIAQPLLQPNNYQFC
Experimental: The ability of compounds of Formula I to inhibit cFMS activation in cells was determined by the following assay. THP-1 cells (human acute monocytic leukemia cell line) were serum-starved for 4 hours prior to treatment with compounds of Formula I for 1 hour. The concentration of compounds of Formula I was varied over a 9-point, 3-fold dilution series with 5,000 nM typically being the highest dose. Cell culture and treatment were carried out in a humidified 37° C., 5% CO2 incubator. Treated cells were stimulated with 250 ng/mL recombinant human MCSF for 1 minute to induce activation of cFMS. Cells were lysed in a manner which preserves phosphoproteins, and the lysate was analyzed by ELISA (R&D Systems, Human Phospho-M-CSF R DuoSet IC DYC3268), in which total cFMS protein in the lysate is captured and phosphotyrosine residues of cFMS are detected. A standard curve, made using purified phospho-M-CSF R protein, was used to quantify phospho-c-FMS in compound-treated wells. A standard 4-parameter logistic model was fit to the inhibitor dose response curves, with the IC50 being defined as the concentration of inhibitor giving 50 percent of control (POC).

PDGFR beta = target: T3, PDGFR beta (Homo sapiens, UniProt P09619); assay: Phospho PDGFR LICOR Cell Assay (Example B); format: cell-based; conditions: averaged IC50; PDGFR beta phosphorylation in HS27 human fibroblast cell line, PDGF-BB stimulation 10 minutes, normalized to total ERK
T3 construct: endogenous in cells; host or cells: HS27 human fibroblast cell line
T3 sequence (P09619 33-1106): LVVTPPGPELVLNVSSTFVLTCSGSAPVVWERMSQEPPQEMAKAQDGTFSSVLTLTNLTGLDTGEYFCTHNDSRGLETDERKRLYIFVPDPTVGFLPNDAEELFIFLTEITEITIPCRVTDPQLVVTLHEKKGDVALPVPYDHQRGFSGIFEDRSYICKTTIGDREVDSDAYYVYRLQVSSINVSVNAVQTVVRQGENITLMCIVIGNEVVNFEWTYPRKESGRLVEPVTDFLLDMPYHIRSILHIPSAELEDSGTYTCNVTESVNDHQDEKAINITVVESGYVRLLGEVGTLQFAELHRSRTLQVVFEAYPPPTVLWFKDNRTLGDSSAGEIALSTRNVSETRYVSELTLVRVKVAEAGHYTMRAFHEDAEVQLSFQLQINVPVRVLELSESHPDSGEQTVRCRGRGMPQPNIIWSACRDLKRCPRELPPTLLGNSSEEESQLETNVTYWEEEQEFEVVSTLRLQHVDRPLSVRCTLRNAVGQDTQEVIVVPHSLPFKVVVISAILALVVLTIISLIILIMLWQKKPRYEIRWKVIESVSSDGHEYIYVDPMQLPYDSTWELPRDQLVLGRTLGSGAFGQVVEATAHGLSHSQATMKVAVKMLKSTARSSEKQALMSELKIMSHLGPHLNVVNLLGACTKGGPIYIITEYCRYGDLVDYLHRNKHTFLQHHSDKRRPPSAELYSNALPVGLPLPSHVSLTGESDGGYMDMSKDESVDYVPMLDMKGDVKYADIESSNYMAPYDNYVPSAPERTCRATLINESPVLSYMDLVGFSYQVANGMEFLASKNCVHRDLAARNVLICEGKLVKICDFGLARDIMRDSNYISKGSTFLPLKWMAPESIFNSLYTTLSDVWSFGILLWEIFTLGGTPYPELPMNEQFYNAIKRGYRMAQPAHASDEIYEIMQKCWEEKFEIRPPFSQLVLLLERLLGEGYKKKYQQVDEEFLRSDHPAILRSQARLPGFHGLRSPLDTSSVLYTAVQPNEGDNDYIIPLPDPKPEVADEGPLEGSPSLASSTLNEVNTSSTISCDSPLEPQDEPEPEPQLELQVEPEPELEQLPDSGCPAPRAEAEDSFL
Experimental: Compounds were screened for inhibition of PDGFR beta phosphorylation in the HS27 human fibroblast cell line. Cells were seeded into a 96 well tissue culture plate, then incubated overnight in a 37° C./5% CO2 incubator. The following day, cells were treated for one hour with test compound dilutions. After stimulation with PDGF-BB ligand for 10 minutes, cells were washed with PBS and fixed in 3.7% formaldehyde in PBS for 10 minutes. This was followed by washing in PBS/0.2% Triton X-100 and permeabilizing in 100% MeOH for 10 minutes. Cells were incubated in blocking buffer for 1 hour. Antibodies to phosphorylated PDGFRβ and total ERK were added to the cells and incubated for 3 hours. After washing with PBS/0.2% Triton X-100, the cells were incubated with fluorescently-labeled secondary antibodies for an additional hour. Cells were then washed with PBS and analyzed for fluorescence at both wavelengths using the Odyssey Infrared Imaging System (LI-COR Biosciences). Phosphorylated PDGFR signal was normalized to total ERK signal. A standard 4-parameter logistic model was fit to the inhibitor dose response curves, with the IC50 being defined as the concentration of inhibitor giving 50 percent of control (POC).

SMILES | IC50 (c-KIT) | IC50 (cFMS) | IC50 (PDGFR beta)
Cc1cccc(Cn2nc(C)c3c(NC(=O)c4cnc5cc(OCC(O)CO)ccn45)cccc32)n1 (stereo not drawn) [Example 58, 7-(2,3-dihydroxypropoxy)-N-(3-methyl-1-((6-methylpyridin-2-yl)methyl)-1H-indazol-4-yl)imidazo[1,2-a]pyridine-3-carboxamide] | 6870 nM | 21.9 nM | 915 nM
Cc1cccc(Cn2nc(C)c3c(NC(=O)c4cnc5cc(OCCN6CCOCC6)ccn45)cccc32)n1 [Example 59, N-(3-methyl-1-((6-methylpyridin-2-yl)methyl)-1H-indazol-4-yl)-7-(2-morpholinoethoxy)imidazo[1,2-a]pyridine-3-carboxamide] | 1490 nM | 19.4 nM | 19.3 nM
Cc1cccc(Cn2nc(C)c3c(NC(=O)c4cnc5cc(OCCN(C)C)ccn45)cccc32)n1 [Example 60, 7-(2-(dimethylamino)ethoxy)-N-(3-methyl-1-((6-methylpyridin-2-yl)methyl)-1H-indazol-4-yl)imidazo[1,2-a]pyridine-3-carboxamide] | 4560 nM | 35.6 nM | 5000 nM
Cc1cccc(Cn2nc(C)c3c(NC(=O)c4cnc5ccccn45)cccc32)n1 [Example 61, N-(3-methyl-1-((6-methylpyridin-2-yl)methyl)-1H-indazol-4-yl)imidazo[1,2-a]pyridine-3-carboxamide] | 527 nM | 58.1 nM | 222 nM
Cc1cccc(Cn2nc(C)c3c(NC(=O)c4cnc5cc(OCCN6CCNCC6)ccn45)cccc32)n1 [Example 64, N-(3-methyl-1-((6-methylpyridin-2-yl)methyl)-1H-indazol-4-yl)-7-(2-(piperazin-1-yl)ethoxy)imidazo[1,2-a]pyridine-3-carboxamide] | 1010 nM | 9.7 nM | 94.1 nM
Cc1cccc(Cn2nc(C)c3c(NC(=O)c4cnc5cc(-c6ccc(=O)n(C)c6)ccn45)cccc32)n1 [Example 65, N-(3-methyl-1-((6-methylpyridin-2-yl)methyl)-1H-indazol-4-yl)-7-(1-methyl-6-oxo-1,6-dihydropyridin-3-yl)imidazo[1,2-a]pyridine-3-carboxamide] | 647 nM | 8.5 nM | 212 nM
Cc1nn(Cc2cc(C)n(C(C)C)n2)c2cccc(NC(=O)c3cnc4cc(OCCN5CCN(C)CC5)ccn34)c12 [Example 67, N-(1-((1-isopropyl-5-methyl-1H-pyrazol-3-yl)methyl)-3-methyl-1H-indazol-4-yl)-7-(2-(4-methylpiperazin-1-yl)ethoxy)imidazo[1,2-a]pyridine-3-carboxamide] | 60.6 nM | 10 nM | 10.3 nM
Cc1cccc(Cn2nc(C)c3c(NC(=O)c4cnc5cc(-c6cnn(C)c6)ccn45)cccc32)n1 [Example 68, N-(3-methyl-1-((6-methylpyridin-2-yl)methyl)-1H-indazol-4-yl)-7-(1-methyl-1H-pyrazol-4-yl)imidazo[1,2-a]pyridine-3-carboxamide] | 76.9 nM | 5 nM | 23.2 nM
Cc1cccc(Cn2nc(C)c3c(NC(=O)c4cnc5cc(CCN(C)C)ccn45)cccc32)n1 [Example 72, 7-(2-(dimethylamino)ethyl)-N-(3-methyl-1-((6-methylpyridin-2-yl)methyl)-1H-indazol-4-yl)imidazo[1,2-a]pyridine-3-carboxamide] | 7010 nM | 24.2 nM | 3160 nM
Cc1cccc(Cn2nc(C)c3c(NC(=O)c4cnc5cc(CCN6CCN(C)CC6)ccn45)cccc32)n1 [Example 78, N-(3-methyl-1-((6-methylpyridin-2-yl)methyl)-1H-indazol-4-yl)-7-(2-(4-methylpiperazin-1-yl)ethyl)imidazo[1,2-a]pyridine-3-carboxamide] | 4070 nM | 17.3 nM | 3430 nM
COCCOc1ccn2c(C(=O)Nc3cccc4c3c(C)nn4Cc3ccccc3)cnc2c1 [Example 80, N-(1-benzyl-3-methyl-1H-indazol-4-yl)-7-(2-methoxyethoxy)imidazo[1,2-a]pyridine-3-carboxamide] | 5700 nM | 8.2 nM | 174 nM
Cc1ccc(Cn2nc(C)c3c(NC(=O)c4cnc5ccccn45)cccc32)cn1 [Example 81, N-(3-methyl-1-((6-methylpyridin-3-yl)methyl)-1H-indazol-4-yl)imidazo[1,2-a]pyridine-3-carboxamide] | 4440 nM | 136 nM | 6440 nM
Cc1ccc(Cn2nc(C)c3c(NC(=O)c4cnc5cc(OCCN6CCN(C)CC6)ccn45)cccc32)cn1 [Example 85, N-(3-methyl-1-((6-methylpyridin-3-yl)methyl)-1H-indazol-4-yl)-7-(2-(4-methylpiperazin-1-yl)ethoxy)imidazo[1,2-a]pyridine-3-carboxamide] | 303 nM | 10.4 nM | 401 nM
CCOc1cccc(Cn2nc(C)c3c(NC(=O)c4cnc5cc(OCCN6CCN(C)CC6)ccn45)cccc32)n1 [Example 86, N-(1-((6-ethoxypyridin-2-yl)methyl)-3-methyl-1H-indazol-4-yl)-7-(2-(4-methylpiperazin-1-yl)ethoxy)imidazo[1,2-a]pyridine-3-carboxamide] | 314 nM | 7 nM | 117 nM
COc1cccc(Cn2nc(C)c3c(NC(=O)c4cnc5cc(OCCN6CCN(C)CC6)ccn45)cccc32)n1 [Example 87, N-(1-((6-methoxypyridin-2-yl)methyl)-3-methyl-1H-indazol-4-yl)-7-(2-(4-methylpiperazin-1-yl)ethoxy)imidazo[1,2-a]pyridine-3-carboxamide] | 372 nM | 4.9 nM | 77.7 nM
Cc1nc(Cn2nc(C)c3c(NC(=O)c4cnc5cc(OCCN6CCN(C)CC6)ccn45)cccc32)cs1 [Example 88, N-(3-methyl-1-((2-methylthiazol-4-yl)methyl)-1H-indazol-4-yl)-7-(2-(4-methylpiperazin-1-yl)ethoxy)imidazo[1,2-a]pyridine-3-carboxamide] | 510 nM | 15.6 nM | 180 nM
Cc1cccc(Cn2nc(C)c3c(NC(=O)c4cnc5cc(OCCN6CCN(C)CC6)ccn45)cccc32)n1 [Example 89, N-(3-methyl-1-((6-methylpyridin-2-yl)methyl)-1H-indazol-4-yl)-7-(2-(4-methylpiperazin-1-yl)ethoxy)imidazo[1,2-a]pyridine-3-carboxamide tetrahydrochloride] | 1050 nM | 7.3 nM | 845 nM
O=C(Nc1cccc2c1cnn2Cc1ccccc1)c1cnc2cc(OCCN3CCOCC3)ccn12 [Example 90, N-(1-benzyl-1H-indazol-4-yl)-7-(2-morpholinoethoxy)imidazo[1,2-a]pyridine-3-carboxamide] | 25.8 nM | 9.8 nM | 5 nM
COCCOc1ccn2c(C(=O)Nc3cccc4c3cnn4Cc3cccc(C(=O)OC)c3)cnc2c1 [Example 93, Methyl 3-((4-(7-(2-methoxyethoxy)imidazo[1,2-a]pyridine-3-carboxamido)-1H-indazol-1-yl)methyl)benzoate] | 6.4 nM | 842 nM | 6 nM
